Literature values, collected in patent US20060045928A1, “Composition containing herbal medicine component for promoting absorption and production method thereof” (priority 2004, published 2006).

Details: carrot fried with oil

- absorption rate improvement, compared with eating raw carrot: 5 to 10 times
Structure (SMILES): CC1=C(/C=C/C(C)=C/C=C/C(C)=C/C=C/C=C(C)/C=C/C=C(C)/C=C/C2=C(C)CCCC2(C)C)C(C)(C)CCC1 [β-carotene]
